Reference: PubChem BioAssay (NCI)
Where “and” joins values, the source holds several entries; their conditions need not be identical. Equal values may be shown once.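 1) Cells in 96-well plates. 2) Compound, 48 h, 5 concentrations. 3) Linear interpolation between surrounding doses. 4) Unreached endpoint = highest concentration. GI50: concentration for 50% inhibition of growth. TGI: total growth inhibition.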

Assays:
Assay in all cases: NCI tumour cell line growth inhibition, 48 h
[1] = system: A549 NSCLC
[2] = system: CAKI-1 renal
[3] = system: CCRF-CEM leukemia
[4] = system: DU-145 prostate
[5] = system: HCC-2998 colon
[6] = system: HOP-62 NSCLC
[7] = system: HOP-92 NSCLC
[8] = system: IGROV1 ovarian
[9] = system: KM12 colon
[10] = system: RPMI-8226 leukemia

Structure (SMILES) | TGI [1] | TGI [2] | TGI [3] [µM] | TGI [4] | TGI [5] | TGI [6] | TGI [7] | TGI [8] | TGI [9] | TGI [10] | GI50 [1] [nM] | GI50 [2] [nM] | GI50 [3] [nM] | GI50 [4] [nM] | GI50 [5] [nM] | GI50 [6] [nM] | GI50 [8] [nM] | GI50 [9] [nM] | GI50 [10] [nM] | GI50 [7] [nM]
O=c1ssc(Cl)c1Cl | > 10 µM | > 10 µM | 5.25 | > 10 µM | > 10 µM | > 10 µM | > 10 µM | > 10 µM | > 10 µM | 9.11 µM |  |  |  |  |  |  |  |  |  | 
Cc1ccc(NC(=O)c2sc3nc4c(cc3c2N)C(=O)CCC4)cc1C | > 100 µM | > 100 µM | 97 | > 100 µM | > 100 µM | > 100 µM | > 100 µM | > 100 µM | > 100 µM | > 30.4 µM | 704 | 661 | 377 | 673 | 1960 | 733 | 2200 | 486 | 1570 | 
O=c1oc2ccc(Br)cc2c(=O)n1-c1ccc(I)cc1F | 22.9 µM | 1.16 µM | 6.82 | 26.9 µM | 8.78 µM | 7.76 µM | 0.492 µM | 18.9 µM | 4.37 µM | 1.16 µM | 717 | 229 | 625 | 494 | 2200 | 774 | 378 | 1660 | 266 | 164
COc1cc(C(=O)N/N=C/c2ccc(N(C)C)cc2)cc(OC)c1OC | > 100 µM | > 100 µM | > 100 | 2.79 µM | 19.1 µM | > 100 µM | 2.28 µM | > 100 µM | 26.4 µM |  | 502 | 3700 | 344 | 415 | 551 | 598 | 1150 | 428 | 344 | 143
CC(=O)OC12COC1CC(O)C1(C)C(=O)C(O)C3=C(C)C(O)CC(O)(C(OC(=O)c4ccccc4)C21)C3(C)C (stereo not drawn) | > 100 µM | > 100 µM | > 100 | > 100 µM | 59.3 µM | > 100 µM | > 100 µM | > 100 µM | > 100 µM | > 59.8 µM |  |  |  |  |  |  |  | 1220 |  | 
Cn1c(NCC(O)CN2CCCC2)cc(=O)n(C)c1=O (stereo not drawn) | > 100 µM | > 100 µM | > 100 | > 100 µM | > 100 µM | > 100 µM | > 100 µM | > 100 µM | > 100 µM | > 100 µM | > 100000 | > 100000 | > 100000 | > 100000 | > 100000 | > 100000 | > 100000 | > 100000 | > 100000 | > 100000
COc1cc(/C=C/C(=O)N2CCN(C(=O)c3cc(OC)c(OC)c(OC)c3)CC2)ccc1OCCCOc1cc2c(cc1OC)C(=O)N1CCC[C@H]1C=N2 | 9.26 µM | 6.08 µM | > 100 | 11.5 µM | 0.838 µM | 0.933 µM | 7.46 µM |  | 0.699 µM | > 100 µM | 953 | 1540 | 83.2 | 351 | 296 | 326 |  | 250 | 431 | 297
CCN1Cc2nc3sc(C)c(C)c3c(=O)n2C=C1C | > 100 µM | 53.5 µM | 8.21 | 23 µM | 37.8 µM | 75.1 µM | 46.4 µM |  | 14.4 µM | 10.9 µM | 38500 | 11200 | 2520 | 7700 | 5190 | 16400 |  | 2800 | 2640 | 6200
CCCCCCCCCCCCOC1C(CNC(=O)C2OC3OC(C)(C)OC3C2NC(=O)Nc2ccc(CC(=O)NC(Cc3ccccc3)C(=O)O)cc2)OC2OC(C)(C)OC21 (stereo not drawn) | > 25 µM | > 25 µM |  | > 25 µM | > 25 µM | > 25 µM | > 25 µM | > 25 µM | > 25 µM | > 25 µM | > 25000 | > 25000 |  | > 25000 | > 25000 | > 25000 | 22500 | > 25000 | 15900 | > 25000
Cc1c(O)c2c(c(O)c1Br)C(=O)C=CC2=O | 4.47 µM and 29.4 µM | 0.894 µM and 0.382 µM |  | 2.85 µM and 3.24 µM | 3.31 µM and 3.82 µM | 2.36 µM and 5.35 µM | 1.48 µM and 0.887 µM | 3.05 µM and 3.56 µM | 3.14 µM and 13.3 µM | 1.01 µM and 0.436 µM | 4140 | 160 |  | 1820 |  | 2480 |  | 3550 | 138 | 270
CC1OC(OC2C(OC3CCC4(C)C(CCC5(C)C4CC=C4C6CC(C)(C)CCC6(C(=O)O)CCC45C)C3(C)CO)OCC(O)C2O)C(O)C(O)C1O (stereo not drawn) | 38.2 µM | 36.6 µM | 18.3 | 42.3 µM | 30.8 µM | > 100 µM | 27.3 µM | 32.9 µM | 21.7 µM |  |  |  |  |  |  |  |  |  |  | 
